Data taken from ChEMBL document CHEMBL4024712, “Synthesis, stability and mechanistic studies of potent anticryptococcal hexapeptides” (Eur J Med Chem, 2017).
≈ marks a conversion by molar mass, not a printed value. Calls of active or inactive are those of the source. The rule behind the calls is not given here. Non-standard residues stand in square brackets, D forms with d. Residues, ends and D or L forms follow the SMILES beside them. His(τ-Bzl) = N[C@@H](Cc1cn(Cc2ccccc2)cn1)C(=O)O; Phe(4-NH2) = Nc1ccc(C[C@H](N)C(=O)O)cc1; Phe(4-Me) = Cc1ccc(C[C@H](N)C(=O)O)cc1; 1Nal = N[C@@H](Cc1cccc2ccccc12)C(=O)O; Cha = N[C@@H](CC1CCCCC1)C(=O)O; Orn = NCCC[C@H](N)C(=O)O

Key:
Candida albicans [1] = experiment: Antifungal activity against Candida albicans by broth microdilution method; assay type: functional
Candida albicans [2] = experiment: Antifungal activity against Candida albicans ATCC 90028 after 18 to 24 hrs by Alamar blue assay; assay type: functional
Nakaseomyces glabratus [3] = experiment: Antifungal activity against Candida glabrata ATCC 90030 after 18 to 24 hrs by Alamar blue assay; assay type: functional; conditions: for MIC: Nakaseomyces glabratus, ATCC 90030
Pichia kudriavzevii [4] = experiment: Fungicidal activity against Candida krusei ATCC 6258 after 18 to 24 hrs by Alamar blue assay; assay type: functional
Aspergillus fumigatus [5] = experiment: Antifungal activity against Aspergillus fumigatus ATCC 90906 after 68 to 72 hrs by Alamar blue assay; assay type: functional
Cryptococcus neoformans [6] = experiment: Antifungal activity against Cryptococcus neoformans ATCC 90113 after 68 to 72 hrs by Alamar blue assay; assay type: functional
[7] = test system: Mycobacterium intracellulare; experiment: Anti-bacterial activity against Mycobacterium intracellulare ATCC 23068 after 68 to 72 hrs by Alamar blue assay; assay type: functional, cell-based
Pseudomonas aeruginosa = experiment: Anti-bacterial activity against Pseudomonas aeruginosa ATCC 27853 by CLSI method; assay type: functional
Vero = experiment: Cytotoxicity against African green monkey Vero cells up to 10 ug/ml after 48 hrs by neutral red dye based assay; assay type: cell-based; conditions: chlorocebus sabaeus
[8] = Selectivity index ratio of cytotoxic concentration against African green monkey Vero cells to IC50 for Cryptococcus neoformans ATCC 90113; assay type: toxicity; conditions: read-out: Selectivity Index
Lipid bilayer [9] = experiment: Binding affinity to EYPC/EYPG small unilamellar vesicles at 0.1 uM by tryptophan fluorescence quenching assay
Lipid bilayer [10] = experiment: Binding affinity to EYPC/cholesterol small unilamellar vesicles at 0.1 uM by tryptophan fluorescence quenching assay; assay type: ADME
[11] = Proteolytic stability assessed as trypsin (unknown origin)-mediated compound hydrolysis at compound to trypsin ratio of 0.5 to […] measured after 24 hrs by RP-HPLC method; assay type: ADME; conditions: human
Cryptococcus neoformans [12] = experiment: Induction of cell lysis in Cryptococcus neoformans ATCC 90113 biofilm assessed as formation of holes at MIC after 1 hr by osmium tetroxide staining based scanning electron microscopic method; assay type: functional
Cryptococcus neoformans [13] = experiment: Induction of cell lysis in Cryptococcus neoformans ATCC 90113 biofilm assessed as cytoplasm leakage at MIC after 1 hr by photungstic acid/ammonium molybdate/uranyl acetatebased scanning based transmission electron microscopic method; assay type: functional
Candida albicans [14] = experiment: Fungicidal activity against Candida albicans ATCC 90028 after 18 to 24 hrs by Alamar blue assay; assay type: functional
Cryptococcus neoformans [15] = experiment: Fungicidal activity against Cryptococcus neoformans ATCC 90113 after 68 to 72 hrs by Alamar blue assay; assay type: functional
Staphylococcus aureus [16] = experiment: Anti-bacterial activity against Staphylococcus aureus ATCC 29213 by CLSI method; assay type: functional
Escherichia coli [17] = experiment: Anti-bacterial activity against Escherichia coli ATCC 35218 by CLSI method; assay type: functional
Nakaseomyces glabratus [18] = experiment: Fungicidal activity against Candida glabrata ATCC 90030 after 18 to 24 hrs by Alamar blue assay; assay type: functional
Pichia kudriavzevii [19] = experiment: Antifungal activity against Candida krusei ATCC 6258 after 18 to 24 hrs by Alamar blue assay; assay type: functional
Aspergillus fumigatus [20] = experiment: Fungicidal activity against Aspergillus fumigatus ATCC 90906 after 68 to 72 hrs by Alamar blue assay; assay type: functional
Staphylococcus aureus [21] = experiment: Anti-bacterial activity against methicillin-resistant Staphylococcus aureus ATCC 33591 by CLSI method; assay type: functional
Staphylococcus aureus [22] = experiment: Bactericidal activity against methicillin-resistant Staphylococcus aureus ATCC 33591 by CLSI method; assay type: functional
Staphylococcus aureus [23] = experiment: Bactericidal activity against Staphylococcus aureus ATCC 29213 by CLSI method; assay type: functional
Cryptococcus neoformans [24] = experiment: Induction of cell lysis in Cryptococcus neoformans ATCC 90113 biofilm assessed as corrugated cells at MIC after 1 hr by osmium tetroxide staining based scanning electron microscopic method; assay type: functional
Cryptococcus neoformans [25] = experiment: Induction of cell lysis in Cryptococcus neoformans ATCC 90113 biofilm assessed as cell perturbation at MIC after 1 hr by osmium tetroxide staining based scanning electron microscopic method; assay type: functional
Cryptococcus neoformans [26] = experiment: Induction of cell lysis in Cryptococcus neoformans ATCC 90113 biofilm assessed as loss of cell wall at MIC after 1 hr by photungstic acid/ammonium molybdate/uranyl acetatebased scanning based transmission electron microscopic method; assay type: functional
Cryptococcus neoformans [27] = experiment: Induction of cell lysis in Cryptococcus neoformans ATCC 90113 biofilm assessed as formation of pits at MIC after 1 hr by photungstic acid/ammonium molybdate/uranyl acetatebased scanning based transmission electron microscopic method; assay type: functional
Lipid bilayer [28] = experiment: Disruption of EYPC/EYPG small unilamellar vesicles assessed as disfigured liposomes at 0.5 ug/ml by phosphotungstic acid staining based transmission electron microscopic method
Escherichia coli [29] = experiment: Bactericidal activity against Escherichia coli ATCC 35218 by CLSI method; assay type: functional
Lipid bilayer [30] = experiment: Disruption of EYPC/EYPG small unilamellar vesicles assessed as lysed liposomes at 0.5 ug/ml by phosphotungstic acid staining based transmission electron microscopic method
Lipid bilayer [31] = experiment: Disruption of EYPC/cholesterol small unilamellar vesicles at 0.5 ug/ml by phosphotungstic acid staining based transmission electron microscopic method; assay type: ADME
[32] = Staphylococcus aureus, ATCC 29213, read-out: IC50
[33] = Pichia kudriavzevii, ATCC 6258, read-out: IC50
[34] = Escherichia coli, ATCC 35218, read-out: IC50
[35] = Staphylococcus aureus, ATCC 33591, read-out: IC50

Row | Compound | IC50 (Candida albicans [2]) | IC50 (Nakaseomyces glabratus [3]) | MFC (Pichia kudriavzevii [4]) | IC50 (Aspergillus fumigatus [5]) | MIC (Cryptococcus neoformans [6]) | IC50 [7] | IC50 (Pseudomonas aeruginosa) | Activity (Vero) | selectivity ratio [8] | Activity (Lipid bilayer [9]) | Activity (Lipid bilayer [10]) | Stability [11] | MFC (Cryptococcus neoformans [15]) | IC50 (Staphylococcus aureus [16]; [32]) | MIC (Pichia kudriavzevii [19]; Pichia kudriavzevii, ATCC 6258) | IC50 (Cryptococcus neoformans [6]) | IC50 (Escherichia coli [17]; [34]) | also measured
1 | NCCCC[C@H](NC(=O)[C@@H](Cc1ccccc1)NC(=O)[C@H](Cc1ccccc1)NC(=O)[C@@H](Cc1ccccc1)NC(=O)[C@@H](Cc1c[nH]c2ccccc12)NC(=O)[C@@H](N)Cc1c[nH]cn1)C(N)=O (H-H[dW][dF]F[dF]K-NH2) |  |  |  |  |  |  |  |  |  |  |  |  |  |  |  |  |  | IC50 (Candida albicans [1]): 6.8 µM
2 | CC[C@H](C)[C@H](NC(=O)[C@H](CC1CCCCC1)NC(=O)[C@H](Cc1c[nH]c2ccccc12)NC(=O)[C@@H](N)CCCN)C(=O)N[C@H](Cc1ccccc1)C(=O)N[C@@H](Cc1cn(Cc2ccccc2)cn1)C(N)=O (H-[Orn]W[Cha]I[dF][His(τ-Bzl)]-NH2) | Not Active | Not Active | 10 µg/mL (≈ 10.4 µM) | Not Active | 0.63 µg/mL (≈ 0.657 µM) | Not Active | Not Active | Non-Toxic | 21 to 25 | Active | Non-Toxic | Stable |  |  |  |  |  | Activity (Cryptococcus neoformans [12]): Active; Activity (Cryptococcus neoformans [13]): Active
3 | CC[C@H](C)[C@H](NC(=O)[C@H](CC1CCCCC1)NC(=O)[C@@H](Cc1c[nH]c2ccccc12)NC(=O)[C@@H](N)CCCN)C(=O)N[C@@H](CC1CCCCC1)C(=O)N[C@@H](Cc1cn(Cc2ccccc2)cn1)C(N)=O (H-[Orn][dW][Cha]I[Cha][His(τ-Bzl)]-NH2) |  |  | 20 µg/mL (≈ 20.7 µM) | Not Active |  | Not Active | Not Active | Non-Toxic | 21 to 25 | Active | Non-Toxic |  | 1.25 µg/mL (≈ 1.3 µM) | 17.5 µg/mL (≈ 18.1 µM) |  |  |  | MIC (Candida albicans [2]; Candida albicans, ATCC 90028): 20 µg/mL (≈ 20.7 µM); IC50 (Candida albicans [2]; Candida albicans, ATCC 90028, read-out: IC50): 17.4 µg/mL (≈ 18 µM); MFC (Candida albicans [14]): 20 µg/mL (≈ 20.7 µM); MIC (Nakaseomyces glabratus [3]): 20 µg/mL (≈ 20.7 µM); IC50 (Escherichia coli [17]): Not Active
4 | NCCC[C@H](N)C(=O)N[C@H](Cc1c[nH]c2ccccc12)C(=O)N[C@@H](CC1CCCCC1)C(=O)N[C@@H](Cc1cccc2ccccc12)C(=O)N[C@H](Cc1ccccc1)C(=O)N[C@@H](Cc1cn(Cc2ccccc2)cn1)C(N)=O (H-[Orn][dW][Cha][1Nal][dF][His(τ-Bzl)]-NH2) |  |  |  |  | 2.5 µg/mL (≈ 2.4 µM) | Not Active | Not Active | Non-Toxic |  |  |  |  |  |  | 10 µg/mL (≈ 9.59 µM) |  |  | MIC (Candida albicans [2]; Candida albicans, ATCC 90028): 20 µg/mL (≈ 19.2 µM); MFC (Candida albicans [14]): 20 µg/mL (≈ 19.2 µM); MIC (Nakaseomyces glabratus [3]): 20 µg/mL (≈ 19.2 µM); MFC (Nakaseomyces glabratus [18]): 20 µg/mL (≈ 19.2 µM); MFC (Aspergillus fumigatus [20]): 20 µg/mL (≈ 19.2 µM); MIC (Staphylococcus aureus [21]; Staphylococcus aureus, ATCC 33591): 10 µg/mL (≈ 9.59 µM); MBC (Staphylococcus aureus [22]): 20 µg/mL (≈ 19.2 µM); MIC (Staphylococcus aureus [16]; Staphylococcus aureus, ATCC 29213): 10 µg/mL (≈ 9.59 µM); MBC (Staphylococcus aureus [23]): 10 µg/mL (≈ 9.59 µM)
5 | Cc1ccc(C[C@H](NC(=O)[C@@H](Cc2ccccc2)NC(=O)[C@@H](Cc2c[nH]c3ccccc23)NC(=O)[C@@H](N)CCCN)C(=O)N[C@H](Cc2ccccc2)C(=O)N[C@@H](CCCN)C(N)=O)cc1 (H-[Orn][dW][dF][Phe(4-Me)][dF][Orn]-NH2) | Not Active | Not Active | 20 µg/mL (≈ 22.5 µM) | Not Active | 0.63 µg/mL (≈ 0.71 µM) | Not Active | Not Active | Non-Toxic | 21 to 25 | Active | Non-Toxic | Stable | 0.63 µg/mL (≈ 0.71 µM) |  | 20 µg/mL (≈ 22.5 µM) | 0.46 µg/mL (≈ 0.519 µM) | 16.5 µg/mL (≈ 18.6 µM) | IC50 (Pichia kudriavzevii [19]; [33]): 15.5 µg/mL (≈ 17.5 µM); IC50 (Staphylococcus aureus [21]): Not Active; IC50 (Staphylococcus aureus [16]): Not Active
6 | Cc1ccc(C[C@H](NC(=O)[C@@H](Cc2ccccc2)NC(=O)[C@@H](Cc2c[nH]c3ccccc23)NC(=O)[C@@H](N)CCCN)C(=O)N[C@H](Cc2ccccc2)C(=O)N[C@@H](Cc2ccc(N)cc2)C(N)=O)cc1 (H-[Orn][dW][dF][Phe(4-Me)][dF][Phe(4-NH2)]-NH2) | Not Active | Not Active |  | Not Active | 5 µg/mL (≈ 5.35 µM) | Not Active | Not Active | Non-Toxic |  | Active | Non-Toxic |  | 5 µg/mL (≈ 5.35 µM) | > 20 µg/mL |  | 4.73 µg/mL (≈ 5.06 µM) | 19.5 µg/mL (≈ 20.9 µM) | IC50 (Pichia kudriavzevii [19]): Not Active; IC50 (Staphylococcus aureus [21]; [35]): > 20 µg/mL; Activity (Cryptococcus neoformans [24]): Active; Activity (Cryptococcus neoformans [25]): Active; Activity (Cryptococcus neoformans [26]): Active
7 | Cc1ccc(C[C@H](NC(=O)[C@@H](Cc2ccccc2)NC(=O)[C@@H](Cc2c[nH]c3ccccc23)NC(=O)[C@@H](N)CCCN)C(=O)N[C@H](Cc2ccccc2)C(=O)N[C@H](CCCCN)C(N)=O)cc1 (H-[Orn][dW][dF][Phe(4-Me)][dF][dK]-NH2) | Not Active | Not Active | 20 µg/mL (≈ 22.2 µM) | Not Active | 0.63 µg/mL (≈ 0.699 µM) | Not Active |  | Non-Toxic | 21 to 25 | Active | Non-Toxic | Stable | 0.63 µg/mL (≈ 0.699 µM) | > 20 µg/mL | 20 µg/mL (≈ 22.2 µM) | 0.4 µg/mL (≈ 0.444 µM) | 8.2 µg/mL (≈ 9.1 µM) | Activity (Cryptococcus neoformans [27]): Active; Activity (Lipid bilayer [28]): Active; IC50 (Pichia kudriavzevii [19]; [33]): 12.1 µg/mL (≈ 13.4 µM); IC50 (Staphylococcus aureus [21]; [35]): > 20 µg/mL; MIC (Escherichia coli [17]; Escherichia coli, ATCC 35218): 20 µg/mL (≈ 22.2 µM); MBC (Escherichia coli [29]): 20 µg/mL (≈ 22.2 µM); IC50 (Pseudomonas aeruginosa; Pseudomonas aeruginosa, ATCC 27853, read-out: IC50): 20 µg/mL (≈ 22.2 µM); Activity (Cryptococcus neoformans [12]): Active; Activity (Lipid bilayer [30]): Active; Activity (Lipid bilayer [31]): Non-Toxic
